Laboratory results as given in patent US10077261B2, “Imidazolin-5-one derivative useful as FASN inhibitors for the treatment of cancer” (Janssen Pharmaceutica NV, priority 2012, dated 2018).

Key:
[1] = system: A2780 ovarian cells; experiment: A2780 ovarian cell proliferation assay in lipid reduced medium, with palmitate (MTT); assay type: cell-based; conditions: Homo sapiens, A2780, 96 h; read-out: pIC50 A2780 Ovarian Cell, With Palmitate (converted)
Method in brief: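 Seeded cells were switched next day to lipid-reduced serum, exposed to compound and 25 μM palmitate complexed with fatty-acid-free BSA, and incubated 96 h. Proliferation was then determined by MTT absorbance at 544 nm, with a best-fit curve of signal against concentration.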

[2] = biological target: Fatty Acid Synthase Keto-reductase Domain (FASN KR) (Homo sapiens, UniProt P49327); experiment: Fatty Acid Synthase keto-reductase domain (FASN KR) inhibition, NADPH oxidation at 340 nm
Procedure: After 20 minutes incubation at room temperature the plate was measured again (T2).
The decrease in absorbance was calculated as (Absorbance before incubation T1)−(Absorbance following incubation T2).
A plot of Controlmin versus test compound concentration was fitted to a 4-parameter logistic curve using a non-linear least squares regression method.

[3] = system: LNCaP-Vancouver prostate cells; experiment: In vitro LNCaP Vancouver prostate cell proliferation assay in lipid reduced medium; assay type: cell-based; conditions: read-out: pIC50 LNCaP_Vancouver prostate cell (converted)
Procedure: LNCaP-Vancouver prostate cells were obtained from the Vancouver Prostate Cancer Centre. Cells were maintained in RPMI-1640, 10% Fetal Calf Serum (FCS, Hyclone), 2 mM glutamine and 50 μg/ml Gentamicin.
For the proliferation experiment 1500 LNCaP-Vancouver cells per well were seeded in a 384-well black with clear bottom plate (costar 3712BC) in 40 μl RPMI-1640, 10% Lipid reduced serum (LRS, Hyclone), 50 μg/ml Gentamicin and 2 mM Glutamine and incubated at 37° C., 5% CO2. The next day 10 μl of test compound/DMSO diluted in medium was added (3E-5M, 1E-5M, 3E-6M, 1E-6M, 3E-7M, 1E-7M, 3E-8M, 1E-8M final concentration). Compounds were tested in duplicate. After 96 h incubation at 37° C., 5% CO2 25 μl ATP-glow mix was added. The plate was incubated for 30 min at 37° C. and luminescence was measured with the Envision.
Analysis: Determination of pIC50 Values
pIC50 values were calculated as follows.
where mLC and mHC are the means of the low control wells and high control wells on the plate, after manual exclusion of outliers. The relation between the % Controlmin values and concentration was fitted to a 4-parameter logistic curve using a non-linear least squares regression method to determine the pIC50 value. Outlying data points were excluded manually to get a correct fit. The pIC50 corresponds to −log 10(IC50), if the IC50 is expressed in molar units (http://www.ncbi.nlm.nih.gov/books/NBK91994). The IC50 parameter was always determined by non-linear regression, but one or more of the other parameters may have been held fixed on a relevant input value, such as 0 for the bottom values.
For dose response curves with FASN inhibitors in LNCaP-Vancouver or PC-3M-Luc-C6 cells the curves bottom out around 30 to 40% of the control value. A standard fit PL2, forcing the lower bound to this level was used.
Representative compounds of the present invention were tested according to the procedure as described in Biological Example 4a and 4b above, with results as listed in Table 9, below.

[4] = system: A2780 ovarian cells; experiment: A2780 ovarian cell proliferation assay in lipid reduced medium, without palmitate (MTT); assay type: cell-based; conditions: Homo sapiens, A2780, 96 h; read-out: pIC50 A2780 Ovarian Cell, Without Palmitate (converted)
[5] = biological target: T1, hFASN enzyme (full length) (Homo sapiens, UniProt P49327); experiment: Fatty Acid Synthase (FASN) inhibition scintillation proximity assay; assay type: biochemical; conditions: for inhibition at 10 µM: read-out: Human FASN % inhibition @ 10 μM, 10 μM test compound; for IC50: read-out: Human FASN pIC50 (converted)
T1 construct: 10 μL hFASN enzyme (full length, 300 ng, purified in house); made in house
Method in brief: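 Full-length in-house purified enzyme (300 ng) was tested in 100 mM KH2PO4 pH 7.5, 1 mM DTT with ³H-acetyl-CoA and malonyl-CoA as substrates; compounds ranged 0.01–30 μM. Reactions were stopped with streptavidin imaging beads, read by LEADseeker at 610 nm, and fitted to a 4-parameter logistic curve.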

T1 sequence (P49327 whole entry): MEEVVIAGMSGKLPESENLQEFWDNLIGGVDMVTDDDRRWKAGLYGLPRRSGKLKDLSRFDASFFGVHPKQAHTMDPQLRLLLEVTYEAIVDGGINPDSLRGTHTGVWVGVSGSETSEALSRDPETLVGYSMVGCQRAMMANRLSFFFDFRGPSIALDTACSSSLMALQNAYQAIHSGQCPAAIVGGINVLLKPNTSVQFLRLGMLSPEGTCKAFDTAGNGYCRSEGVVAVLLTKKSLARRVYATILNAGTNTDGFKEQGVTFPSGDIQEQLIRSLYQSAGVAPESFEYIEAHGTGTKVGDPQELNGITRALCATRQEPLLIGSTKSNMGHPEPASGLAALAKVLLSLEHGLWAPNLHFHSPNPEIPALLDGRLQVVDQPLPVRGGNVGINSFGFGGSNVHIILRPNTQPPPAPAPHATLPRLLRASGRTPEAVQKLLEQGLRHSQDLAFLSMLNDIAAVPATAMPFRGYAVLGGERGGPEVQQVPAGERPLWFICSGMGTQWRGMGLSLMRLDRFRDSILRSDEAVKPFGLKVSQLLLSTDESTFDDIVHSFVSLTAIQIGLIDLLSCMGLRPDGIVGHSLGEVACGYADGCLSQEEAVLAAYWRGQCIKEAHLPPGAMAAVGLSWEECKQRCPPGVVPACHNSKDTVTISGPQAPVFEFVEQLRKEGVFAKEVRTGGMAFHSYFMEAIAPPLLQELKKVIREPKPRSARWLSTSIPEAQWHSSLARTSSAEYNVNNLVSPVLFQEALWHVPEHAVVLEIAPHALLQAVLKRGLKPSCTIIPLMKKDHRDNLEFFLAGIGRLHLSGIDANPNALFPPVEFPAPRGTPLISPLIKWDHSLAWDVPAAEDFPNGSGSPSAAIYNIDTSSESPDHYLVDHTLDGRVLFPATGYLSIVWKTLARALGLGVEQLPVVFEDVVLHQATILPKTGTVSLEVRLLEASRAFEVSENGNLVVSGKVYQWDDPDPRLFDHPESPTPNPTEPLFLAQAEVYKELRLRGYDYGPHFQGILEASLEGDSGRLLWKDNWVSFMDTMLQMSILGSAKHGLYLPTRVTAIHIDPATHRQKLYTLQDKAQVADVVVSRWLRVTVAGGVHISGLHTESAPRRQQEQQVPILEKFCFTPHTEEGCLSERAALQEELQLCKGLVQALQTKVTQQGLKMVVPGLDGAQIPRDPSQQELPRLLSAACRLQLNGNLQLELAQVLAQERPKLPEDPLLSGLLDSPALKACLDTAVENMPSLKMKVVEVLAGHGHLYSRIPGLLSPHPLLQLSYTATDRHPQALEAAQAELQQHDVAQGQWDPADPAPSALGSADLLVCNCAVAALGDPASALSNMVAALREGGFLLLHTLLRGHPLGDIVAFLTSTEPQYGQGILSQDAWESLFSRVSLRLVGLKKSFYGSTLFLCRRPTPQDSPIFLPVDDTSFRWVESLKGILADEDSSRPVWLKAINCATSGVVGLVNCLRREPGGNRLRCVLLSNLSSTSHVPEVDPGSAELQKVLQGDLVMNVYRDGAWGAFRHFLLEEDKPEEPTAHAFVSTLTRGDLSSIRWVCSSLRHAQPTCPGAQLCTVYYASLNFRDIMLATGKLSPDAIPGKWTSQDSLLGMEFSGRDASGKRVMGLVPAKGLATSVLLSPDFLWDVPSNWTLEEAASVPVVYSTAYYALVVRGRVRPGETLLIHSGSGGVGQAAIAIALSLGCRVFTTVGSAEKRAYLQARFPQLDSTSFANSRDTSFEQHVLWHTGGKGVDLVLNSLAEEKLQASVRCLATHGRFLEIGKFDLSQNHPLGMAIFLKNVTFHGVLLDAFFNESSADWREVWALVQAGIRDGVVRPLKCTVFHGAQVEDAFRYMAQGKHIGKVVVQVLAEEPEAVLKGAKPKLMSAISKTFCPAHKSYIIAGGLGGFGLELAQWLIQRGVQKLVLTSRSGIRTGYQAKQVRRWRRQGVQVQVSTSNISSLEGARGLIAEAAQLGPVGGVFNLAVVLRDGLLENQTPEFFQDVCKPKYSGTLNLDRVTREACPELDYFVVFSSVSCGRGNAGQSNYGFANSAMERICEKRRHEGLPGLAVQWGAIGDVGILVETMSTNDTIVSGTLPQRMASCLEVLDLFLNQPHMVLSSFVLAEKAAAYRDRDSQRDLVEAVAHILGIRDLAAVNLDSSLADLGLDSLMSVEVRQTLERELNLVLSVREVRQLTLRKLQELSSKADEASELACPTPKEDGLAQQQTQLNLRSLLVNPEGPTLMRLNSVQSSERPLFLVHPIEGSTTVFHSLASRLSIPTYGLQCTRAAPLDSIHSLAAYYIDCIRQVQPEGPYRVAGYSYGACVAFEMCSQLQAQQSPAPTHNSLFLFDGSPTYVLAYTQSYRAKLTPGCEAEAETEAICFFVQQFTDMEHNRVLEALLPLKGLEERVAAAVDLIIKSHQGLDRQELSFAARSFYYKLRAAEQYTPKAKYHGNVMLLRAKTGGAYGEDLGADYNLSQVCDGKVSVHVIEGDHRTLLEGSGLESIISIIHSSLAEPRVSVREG
Chain of Fatty Acid Synthase Keto-reductase Domain (FASN KR) (P49327 whole entry, the tested form may be a part): as the sequence (P49327 whole entry) above

Structure (SMILES)	IC50 [1] [nM]	IC50 [2] [nM]	IC50 [3] [nM]	IC50 [4] [nM]	inhibition at 10 µM [5] [%]	IC50 [5] [nM]
Cc1cc2cc(-c3ccc(C4=NC5(CC5)C(=O)N4CC4CN(C(=O)C5CC5)C4)c(F)c3)ccc2s1 [compound 548, 6-{[1-(Cyclopropylcarbonyl)azetidin-3-yl]methyl}-5-[2-fluoro-4-(2-methyl-1-benzothiophen-5-yl)phenyl]-4,6-diazaspiro[2.4]hept-4-en-7-one]	6170	166	1100	~295	88	162
O=C(C1CC1)N1CC(CN2C(=O)C3(CC3)N=C2c2ccc(-c3ccc4cncnc4c3)cc2)C1 [compound 543, 6-{[1-(Cyclopropylcarbonyl)azetidin-3-yl]methyl}-5-(4-quinazolin-7-ylphenyl)-4,6-diazaspiro[2.4]hept-4-en-7-one]	> 10000	479	2000	141	97	145
Cc1sc2ccc(-c3ccc(C4=NC5(CC5)C(=O)N4C[C@@H]4CCN(C(=O)C5CC5)C4)cc3)cc2c1C [compound 296, (R)-6-((1-(cyclopropanecarbonyl)pyrrolidin-3-yl)methyl)-5-(4-(2,3-dimethylbenzo[b]thiophen-5-yl)phenyl)-4,6-diazaspiro[2.4]hept-4-en-7-one]	> 10000	81.3	3630	~2090	106	38.9
CCC(=O)N1CC(CN2C(=O)C3(CC3)N=C2c2ccc(-c3ccc4c(cnn4C)c3)cc2C)C1 [compound 471, 5-[2-Methyl-4-(1-methyl-1H-indazol-5-yl)phenyl]-6-[(1-propanoylazetidin-3-yl)methyl]-4,6-diazaspiro[2.4]hept-4-en-7-one]	> 10000	331	1290	417	99	182
Cn1nc(C2CC2)c2cc(-c3ccc(C4=NC5(CC5)C(=O)N4C[C@@H]4CCN(C(=O)C5CC5)C4)cc3)ccc21 [compound 465, 6-{[(3R)-1-(Cyclopropylcarbonyl)pyrrolidin-3-yl]methyl}-5-[4-(3-cyclopropyl-1-methyl-1H-indazol-5-yl)phenyl]-4,6-diazaspiro[2.4]hept-4-en-7-one]	> 10000	200	525	182	99	151
Cc1cc(C2=NC3(CC3)C(=O)N2C[C@@H]2CCN(C(=O)C3CC3)C2)ccc1-c1ccc2sccc2c1 [compound 230, (R)-5-(4-(benzo[b]thiophen-5-yl)-3-methylphenyl)-6-((1-(cyclopropanecarbonyl)pyrrolidin-3-yl)methyl)-4,6-diazaspiro[2.4]hept-4-en-7-one]	> 10000	105	1230	550	107	40.7
COC(=O)N1CC2(C1)N=C(c1ccc(-c3ccc(-c4cnn(C)c4)cc3)cc1)N(C[C@@H]1CCN(C(=O)C3CC3)C1)C2=O [compound 725, Methyl 7-{[(3R)-1-(cyclopropylcarbonyl)pyrrolidin-3-yl]methyl}-6-[4′-(1-methyl-1H-pyrazol-4-yl)biphenyl-4-yl]-8-oxo-2,5,7-triazaspiro[3.4]oct-5-ene-2-carboxylate]		646	1660		93	245
O=C(C1CC1)N1CC[C@@H](CN2C(=O)C3(CC3)N=C2c2ccc(-c3ccc4cc(F)ccc4c3)cc2)C1 [compound 311, (R)-6-((1-(cyclopropanecarbonyl)pyrrolidin-3-yl)methyl)-5-(4-(6-fluoronaphthalen-2-yl)phenyl)-4,6-diazaspiro[2.4]hept-4-en-7-one]	> 10000		302	~229		
O=C(C1CC1)N1CC[C@@H](CN2C(=O)C3(CCOC3)N=C2c2ccc(-c3ccc4cccnc4c3)cc2)C1 (stereo partly drawn) [compound 680, 3-{[(3R)-1-(Cyclopropylcarbonyl)pyrrolidin-3-yl]methyl}-2-(4-quinolin-7-ylphenyl)-7-oxa-1,3-diazaspiro[4.4]non-1-en-4-one]		224	339		98	79.4
O=C(C1CC1)N1CC[C@@H](CN2C(=O)C3(CCOC3)N=C2c2ccc(-c3ccc4occc4c3)cc2)C1 (stereo partly drawn) [compound 686, 2-[4-(1-Benzofuran-5-yl)phenyl]-3-{[(3R)-1-(cyclopropylcarbonyl)pyrrolidin-3-yl]methyl}-7-oxa-1,3-diazaspiro[4.4]non-1-en-4-one]		676	3800		98	182
Cn1ncc2cc(-c3ccc(C4=NC5(CCOC5)C(=O)N4C[C@@H]4CCN(C(=O)C5CC5)C4)cc3)ccc21 (stereo partly drawn) [compound 690, 3-{[(3R)-1-(Cyclopropylcarbonyl)pyrrolidin-3-yl]methyl}-2-[4-(1-methyl-1H-indazol-5-yl)phenyl]-7-oxa-1,3-diazaspiro[4.4]non-1-en-4-one]	> 10000		2340	708		
Cc1ccc2cc(-c3ccc(C4=NC5(CC5)C(=O)N4CC4CN(C(=O)C5CC5)C4)cc3)ccc2n1 [compound 510, 6-{[1-(Cyclopropylcarbonyl)azetidin-3-yl]methyl}-5-[4-(2-methylquinolin-6-yl)phenyl]-4,6-diazaspiro[2.4]hept-4-en-7-one]		5370	4790		80	955
O=C([C@H]1CCCO1)N1CC[C@@H](CN2C(=O)C3(CCOCC3)N=C2c2ccc(-c3ccc4occc4c3)cc2)C1 [compound 669, 2-[4-(1-Benzofuran-5-yl)phenyl]-3-({(3R)-1-[(2R)-tetrahydro-furan-2-ylcarbonyl]pyrrolidin-3-yl}methyl)-8-oxa-1,3-diazaspiro[4.5]dec-1-en-4-one]			2820			
Cn1ncc2cc(-c3ccc(C4=NC5(CCOCC5)C(=O)N4C[C@@H]4CCN(C(=O)C5CC5)C4)cc3)ccc21 [compound 672, 3-{[(3R)-1-(Cyclopropylcarbonyl)pyrrolidin-3-yl]methyl}-2-[4-(1-methyl-1H-indazol-5-yl)phenyl]-8-oxa-1,3-diazaspiro[4.5]dec-1-en-4-one]	> 10000		2630	~407		
O=C(C1CC1)N1CCC(CN2C(=O)C3(CC3)N=C2c2ccc(-c3ccc4scnc4c3)cc2)CC1 [compound 57, 5-[4-(1,3-Benzothiazol-5-yl)phenyl]-6-{[1-(cyclopropylcarbonyl)piperidin-4-yl]methyl}-4,6-diazaspiro[2.4]hept-4-en-7-one]	> 10000	1700		2510	88.1	759
O=C(C1CC1)N1CC[C@@H](CN2C(=O)C3(CC3)N=C2c2ccc(-c3cccc(O)c3)cc2)C1 [compound 115, 6-{[(3R)-1-(Cyclopropylcarbonyl)pyrrolidin-3-yl]methyl}-5-(3′-hydroxybiphenyl-4-yl)-4,6-diazaspiro[2.4]hept-4-en-7-one]	> 10000	123		~61.7	113	30.2
COC(=O)N1CCC2(CC1)N=C(c1ccc(-c3ccc4occc4c3)cc1)N(C[C@@H]1CCN(C(=O)C3CC3)C1)C2=O [compound 14, (R)-Methyl 2-(4-(benzofuran-5-yl)phenyl)-3-((1-(cyclopropanecarbonyl)pyrrolidin-3-yl)methyl)-4-oxo-1,3,8-triazaspiro[4.5]dec-1-ene-8-carboxylate]	> 10000	302		1230	98.2	148
